Like-named read-outs stand apart in the source and are kept apart here.
How the values were obtained:
[1] = system: Female Swiss-Webster mice; test: Test B: antagonism of apomorphine-induced climbing and apomorphine-induced disruption of swimming; format: in vivo; conditions: Mus musculus, po, read-out: minimum effective dose
Procedure: (§1) The compounds of Formula I are antagonists of dopamine D-2 receptors, and as such are predicted to be useful as antipsychotic drugs. D-2 antagonism can be shown by standard tests such as antagonism of [^3H]-spiperone binding (Test A), and/or antagonism of apomorphine-induced climbing and apomorphine- induced disruption of swimming (Test B).
Female Swiss-Webster mice weighing approximately 20 g were deprived of food for approximately 24 h and then dosed orally with various doses of either the vehicle or test agent over a range of doses (N = 20 mice per treatment group). Thirty minutes later they were dosed with apomorphine HCl at 1.25 mg/kg, sc, and placed into climbing cages. The climbing cages were 9 cm wide, 15 cm deep and 30 cm high. One wall had 27 horizontal rungs spaced 1 cm apart. Thirteen minutes after apomorphine each mouse was observed continuously for 1 min and the highest and lowest rung reached by its front paws was recorded. […] (The highest and lowest scores were 27 and 0, respectively.) Immediately after the 1-min climbing observation period each mouse was placed into a circular swimming tank for 2 min and the number of swims was counted. […] A "swim" was scored each time a mouse swam from one mark to the other. The mice were observed through overhead mirrors and the number of 180 degree swims was recorded for each mouse. […]

[2] = target: T1, dopamine (DA) D-2 receptor subtype (Rattus norvegicus, UniProt P61169); test: Test A: dopamine D-2 receptor binding assay, displacement of [3H]-spiperone
T1 construct: Specifically, rat striatal membranes were used; from tissue; host or cells: rat striatum (membranes)
Excerpt: as §1
The receptor binding assay used to measure affinities of various compounds for the dopamine (DA) D-2 receptor subtype was that described by Saller and Salama in J Pharmacol Exp Ther 236, page 714, 1986.
Specifically, rat striatal membranes were used. Tissue membranes were prepared and washed once in 50 volumes of the appropriate Tris HCl buffer. For the D-2 receptor binding assay, striatal membranes were suspended to a final concentration of 8 mg/ml in 50 mM Tris HCl with 40 nM ketanserin, pH 7.7. Nonspecific binding to D-2 receptors was measured in the presence of 1.0 µM (+)-butaclamol. IC50s (drug concentration which produced a 50% displacement) for the displacement of 0.5 nM [^3H] spiperone were determined using at least five concentrations of each drug in triplicate. One-half milliliter of membrane suspension was incubated with the compound of interest or vehicle or nonspecific drug, ligand and appropriate Tris HCl buffer. […] The amount of drug bound to the membranes was assessed using liquid scintillation counting techniques. […]

T1 sequence (P61169 whole entry): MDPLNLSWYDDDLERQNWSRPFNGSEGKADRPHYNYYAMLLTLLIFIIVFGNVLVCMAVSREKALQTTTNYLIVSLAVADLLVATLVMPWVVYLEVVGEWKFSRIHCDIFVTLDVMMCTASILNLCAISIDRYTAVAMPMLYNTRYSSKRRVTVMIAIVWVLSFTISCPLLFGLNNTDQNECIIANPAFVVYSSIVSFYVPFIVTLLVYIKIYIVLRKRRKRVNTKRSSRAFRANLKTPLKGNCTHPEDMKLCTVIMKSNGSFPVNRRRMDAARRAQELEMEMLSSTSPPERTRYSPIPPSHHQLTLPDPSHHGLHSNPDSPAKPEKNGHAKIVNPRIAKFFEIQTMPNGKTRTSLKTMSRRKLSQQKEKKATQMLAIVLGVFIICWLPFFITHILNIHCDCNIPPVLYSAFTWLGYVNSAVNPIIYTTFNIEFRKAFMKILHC

OC1(c2cccnc2)CCN(CC23CC(c4ccccc42)c2ccccc23)CC1 [Example 5, 1-(9,10-Dihydro-9,10-methanoanthracen-9-ylmethyl)-4-(3-pyridyl)piperidin-4-ol]
minimal effective dose [1]: 20 mg/kg
IC50 [2]: 12 nM

CC(C)(C)C1(O)CCN(CC23CC(c4ccccc42)c2ccc(Cl)cc23)CC1 (stereo not shown) [Example 49, 1-(2-Chloro-9,10-dihydro-9,10-methanoanthracen-9-ylmethyl)-4-(1,1-dimethylethyl)piperidin-4-ol]
minimal effective dose ([1]; dosed orally 30 min before apomorphine HCl 1.25 mg/kg sc, decreased climbing score with increased swimming score, typical result): 1.3 mg/kg
IC50 ([2]; displacement of 0.5 nM [3H] spiperone, rat striatal membranes, 37°C for 15 min, typical result, read-out: IC50): 3 nM

Source: patent publication EP0533344B1, “Methanoanthracenes as dopamine antagonists” (ZENECA LIMITED, priority 1991, dated 1993)
